Tested on: IL-13 induced pSTAT6 in BEAS-2B human cell line
Test: Inhibition of IL-13 induced pSTAT6 in BEAS
Type: cell-based
Details: IL-13 induced pSTAT6, BEAS-2B cells, ELISA
Procedure: BEAS-2B human cell line was seeded (100.000 cells/well) and incubated for 48 h at 37° C., 5% CO2, 95% humidity. Compounds were added and incubated 30 min followed by IL-13 as trigger. After 30 min incubation, cells were lysed and pSTAT6 determined by Fastscan phospho-stat6 (Tyr641) sandwich ELISA kit (cell signaling). Inhibitors were tested at 11 consecutive […] dilutions starting from 10 μM (10 μM-40 pM) in duplicate. Calculation of IC50 data, curves and QC analysis were made using Excel tools and GraphPadPrism software. QC criteria parameters: Z′≥0.35, Hill Slope range 0.5 to 5, S:B>2.

**Q.** With `COc1cc2c(cc1-n1nc(C(=O)NCCN3CCCC4(COC4)C3)c3cnc(-c4cnn5cccnc45)cc31)OCCN2` [Example 49, N-(2-(2-oxa-6-azaspiro[3.5]nonan-6-yl)ethyl)-1-(6-methoxy-3,4-dihydro-2H-benzo[b][1,4]oxazin-7-yl)-6-(pyrazolo[1,5-a]pyrimidin-3-yl)-1H-pyrazolo[4,3-c]pyridine-3-carboxamide] as the molecule, how does the IC50 read?
**A.** The IC50 was 5.01 to 50.1 nM.

**Q.** For `COc1cc2c(cc1-n1nc(C(=O)NCCCN(C)C)c3cnc(-c4cnn5cccnc45)cc31)CCCN2` [Example 25, N-(3-(dimethylamino)propyl)-1-(7-methoxy-1,2,3,4-tetrahydroquinolin-6-yl)-6-(pyrazolo[1,5-a]pyrimidin-3-yl)-1H-pyrazolo[4,3-c]pyridine-3-carboxamide], which IC50 is on record?
**A.** Its IC50 is 5.01 to 50.1 nM.

**Q.** `COc1cc2c(cc1-n1nc(C(=O)NCCN3CCC(C(N)=O)CC3)c3cnc(-c4cnn5cccnc45)cc31)OCCN2` [Example 79, N-(2-(4-carbamoylpiperidin-1-yl)ethyl)-1-(6-methoxy-3,4-dihydro-2H-benzo[b][1,4]oxazin-7-yl)-6-(pyrazolo[1,5-a]pyrimidin-3-yl)-1H-pyrazolo[4,3-c]pyridine-3-carboxamide] was tested. Which IC50 did it give?
**A.** Its IC50 is 50.1 to 501 nM.

**Q.** How did the IC50 turn out when `COc1cc2c(cc1-n1nc(C(=O)NCCN3CCC(C(=O)N(C)C)CC3)c3cnc(-c4cnn5cccnc45)cc31)OCCN2` [Example 53, N-(2-(4-(dimethylcarbamoyl)piperidin-1-yl)ethyl)-1-(6-methoxy-3,4-dihydro-2H-benzo[b][1,4]oxazin-7-yl)-6-(pyrazolo[1,5-a]pyrimidin-3-yl)-1H-pyrazolo[4,3-c]pyridine-3-carboxamide] was run?
**A.** The IC50 was 5.01 to 50.1 nM.

**Q.** For `COc1cc2c(cc1-n1nc(C(=O)NCCN3CCC4(CCC(=O)O4)CC3)c3cnc(-c4cnn5cccnc45)cc31)OCCN2` [Example 15, 1-(6-methoxy-3,4-dihydro-2H-benzo[b][1,4]oxazin-7-yl)-N-(2-(2-oxo-1-oxa-8-azaspiro[4.5]decan-8-yl)ethyl)-6-(pyrazolo[1,5-a]pyrimidin-3-yl)-1H-pyrazolo[4,3-c]pyridine-3-carboxamide], which IC50 is on record?
**A.** Its IC50 is under 5.01 nM.

**Q.** How did the IC50 turn out when `COc1cc2c(cc1-n1nc(C(=O)NCCCN(C)C)c3cnc(-c4cnn5cccnc45)cc31)SCCN2` [Example 16, N-(3-(dimethylamino)propyl)-1-(6-methoxy-3,4-dihydro-2H-benzo[b][1,4]thiazin-7-yl)-6-(pyrazolo[1,5-a]pyrimidin-3-yl)-1H-pyrazolo[4,3-c]pyridine-3-carboxamide] was run?
**A.** The IC50 was under 5.01 nM.

**Q.** Which IC50 does the source give for `COc1cc2c(cc1-n1nc(C(=O)NCCN3CCC(OC)CC3)c3cnc(-c4cnn5cccnc45)cc31)OCCN2` [Example 46, 1-(6-methoxy-3,4-dihydro-2H-benzo[b][1,4]oxazin-7-yl)-N-(2-(4-methoxypiperidin-1-yl)ethyl)-6-(pyrazolo[1,5-a]pyrimidin-3-yl)-1H-pyrazolo[4,3-c]pyridine-3-carboxamide] here?
**A.** Its IC50 is under 5.01 nM.

**Q.** With `CN(C)CCCNC(=O)c1nn(-c2cc3c(cc2OC(F)F)NCCO3)c2cc(-c3cnn4cccnc34)ncc12` [Example 78, 1-(6-(difluoromethoxy)-3,4-dihydro-2H-benzo[b][1,4]oxazin-7-yl)-N-(3-(dimethylamino)propyl)-6-(pyrazolo[1,5-a]pyrimidin-3-yl)-1H-pyrazolo[4,3-c]pyridine-3-carboxamide] as the molecule, how does the IC50 read?
**A.** Its IC50 is 5.01 to 50.1 nM.

**Q.** With `COc1cc2c(cc1-n1nc(NC(=O)OCCCN(C)C)c3cnc(-c4cnn5cccnc45)cc31)OCCN2` [Example 60, 3-(dimethylamino)propyl (1-(6-methoxy-3,4-dihydro-2H-benzo[b][1,4]oxazin-7-yl)-6-(pyrazolo[1,5-a]pyrimidin-3-yl)-1H-pyrazolo[4,3-c]pyridin-3-yl)carbamate] as the molecule, how does the IC50 read?
**A.** Its IC50 is 5.01 to 50.1 nM.

**Q.** With `COc1cc2c(cc1-n1nc(NC(=O)O[C@@H]3CCN(C)C3)c3cnc(-c4cnn5cccnc45)cc31)SCCN2` [Example 32, (R)-1-methylpyrrolidin-3-yl (1-(6-methoxy-3,4-dihydro-2H-benzo[b][1,4]thiazin-7-yl)-6-(pyrazolo[1,5-a]pyrimidin-3-yl)-1H-pyrazolo[4,3-c]pyridin-3-yl)carbamate] as the molecule, how does the IC50 read?
**A.** Its IC50 is 5.01 to 50.1 nM.

**Q.** `COc1cc2c(cc1-n1nc(C)c3cnc(-c4cnn5cccnc45)cc31)CN(C)C(=O)N2` [Example 12, 7-methoxy-3-methyl-6-(3-methyl-6-(pyrazolo[1,5-a]pyrimidin-3-yl)-1H-pyrazolo[4,3-c]pyridin-1-yl)-3,4-dihydroquinazolin-2(1H)-one] was tested. Which IC50 did it give?
**A.** Its IC50 is 50.1 to 501 nM.

**Q.** `COc1cc2c(cc1-n1nc(NCCN(C)C)c3cnc(-c4cnn5cccnc45)cc31)SCC(=O)N2` [Example 38, 7-(3-((2-(dimethylamino)ethyl)amino)-6-(pyrazolo[1,5-a]pyrimidin-3-yl)-1H-pyrazolo[4,3-c]pyridin-1-yl)-6-methoxy-2H-benzo[b][1,4]thiazin-3(4H)-one] was tested. Which IC50 did it give?
**A.** Its IC50 is 5.01 to 50.1 nM.

**Q.** How did the IC50 turn out when `CNc1nn(-c2cc3c(cc2OC)NC(=O)CC3)c2cc(-c3cnn4cccnc34)ncc12` [Example 26, 7-methoxy-6-(3-(methylamino)-6-(pyrazolo[1,5-a]pyrimidin-3-yl)-1H-pyrazolo[4,3-c]pyridin-1-yl)-3,4-dihydroquinolin-2(1H)-one] was run?
**A.** Its IC50 is 5.01 to 50.1 nM.

**Q.** Which IC50 does the source give for `COc1cc2c(cc1-n1nc(NC(=O)OCCCN3CCN(C)CC3)c3cnc(-c4cnn5cccnc45)cc31)SCCN2` [Example 30, 3-(4-methylpiperazin-1-yl)propyl (1-(6-methoxy-3,4-dihydro-2H-benzo[b][1,4]thiazin-7-yl)-6-(pyrazolo[1,5-a]pyrimidin-3-yl)-1H-pyrazolo[4,3-c]pyridin-3-yl)carbamate] here?
**A.** Its IC50 is 5.01 to 50.1 nM.

**Q.** How did the IC50 turn out when `COc1cc2c(cc1-n1nc(NCCN3CCN(C)CC3)c3cnc(-c4cnn5cccnc45)cc31)SCC(=O)N2` [Example 37] was run?
**A.** The IC50 was 5.01 to 50.1 nM.

**Q.** Which IC50 does the source give for `COc1cc2c(cc1-n1nc(C)c3cnc(-c4cnn5cccnc45)cc31)CCN2` [Example 41, 1-(6-methoxyindolin-5-yl)-3-methyl-6-(pyrazolo[1,5-a]pyrimidin-3-yl)-1H-pyrazolo[4,3-c]pyridine] here?
**A.** The IC50 was 5.01 to 50.1 nM.

**Q.** With `COc1cc2c(cc1-n1nc(C)c3cnc(-c4cnn5cccnc45)cc31)S(=O)(=O)CCN2` [Example 8, 6-methoxy-7-(3-methyl-6-(pyrazolo[1,5-a]pyrimidin-3-yl)-1H-pyrazolo[4,3-c]pyridin-1-yl)-3,4-dihydro-2H-benzo[b][1,4]thiazine 1,1-dioxide] as the molecule, how does the IC50 read?
**A.** Its IC50 is 5.01 to 50.1 nM.

**Q.** How did the IC50 turn out when `COc1cc2c(cc1-n1nc(NC(=O)OCCN(C)C)c3cnc(-c4cnn5cccnc45)cc31)CCCN2` [Example 69, 2-(dimethylamino)ethyl (1-(7-methoxy-1,2,3,4-tetrahydroquinolin-6-yl)-6-(pyrazolo[1,5-a]pyrimidin-3-yl)-1H-pyrazolo[4,3-c]pyridin-3-yl)carbamate] was run?
**A.** Its IC50 is 5.01 to 50.1 nM.

**Q.** With `COc1cc2c(cc1-n1nc(NC(=O)OCCN3CCOCC3)c3cnc(-c4cnn5cccnc45)cc31)SCCN2` [Example 29, 2-morpholinoethyl (1-(6-methoxy-3,4-dihydro-2H-benzo[b][1,4]thiazin-7-yl)-6-(pyrazolo[1,5-a]pyrimidin-3-yl)-1H-pyrazolo[4,3-c]pyridin-3-yl)carbamate] as the molecule, how does the IC50 read?
**A.** Its IC50 is under 5.01 nM.

**Q.** `COc1cc2c(cc1-n1nc(NC(=O)OCCN3CCOCC3)c3cnc(-c4cnn5cccnc45)cc31)OCCN2` [Example 58, 2-morpholinoethyl (1-(6-methoxy-3,4-dihydro-2H-benzo[b][1,4]oxazin-7-yl)-6-(pyrazolo[1,5-a]pyrimidin-3-yl)-1H-pyrazolo[4,3-c]pyridin-3-yl)carbamate] was tested. Which IC50 did it give?
**A.** The IC50 was 5.01 to 50.1 nM.

— US20260085077A1, “HETEROCYCLIC DERIVATIVES AS JANUS KINASE INHIBITORS” (CHIESI FARMACEUTICI S.P.A., priority 2022, published 2026)
